# Where a name gives a salt, the structure may show the parent alone.
# How the values were obtained:
# MASP-2 (CCP1-CCP2-SP) = biological target: T1, MASP-2 (CCP1-CCP2-SP) (Homo sapiens, UniProt O00187); experiment: Enzymatic assay for MASP-2 inhibitory activity (fluorogenic substrate); format: biochemical
# T1 construct: 15 μL of Enzyme MASP-2 (CCP1-CCP2-SP) in Assay Buffer
# Procedure: The MASP-2 assay utilizes a fluorogenic substrate, based on the cleavage site for its natural substrate C2. The assay was run at room temperature in an assay buffer containing 20 mM HEPES, pH 7.4, 140 mM NaCl and 0.1% Tween 20. Assay parameters were adjusted such that the assay was linear with respect to time, enzyme, and substrate concentrations. Under the optimized assays conditions, IC50 values were equivalent to Ki values, except in the few cases of “tight binding” inhibitors. Cases of “tight binding” or possible “slow binding” inhibitors were handled by the methods described in Copeland R. A. (2013) Evaluation of Enzyme Inhibitors in Drug Discovery. 2nd Ed., John Wiley and Sons, Inc., Chapters 5-7.
# The MASP-2 assay protocol was carried out as follows. Test compounds were serially diluted in DMSO and then 100 nL of each dilution was transferred to the assay plate(s). 10 μL of Assay Buffer was added, followed by 15 μL of Enzyme MASP-2 (CCP1-CCP2-SP) in Assay Buffer. 15 μL of Substrate in Assay Buffer was then added and the mixture was mixed to start the reaction. After 20 min at room temperature, 15 μL of a stop solution (0.1 M acetic acid) was added, the sample was mixed, and the plates were read on a SpectraMax i3x Microplate Reader with the data exported as an Excel file. Each assay plate included a “no inhibitor” (DMSO only) control, a “no enzyme” control, and a reference inhibitor control. % Activity values=100*(average test comp. fluorescence−average “no enzyme” fluorescence)/(average “DMSO only” fluorescence−average “no enzyme” fluorescence). IC50 and Ki replicate values were very reproducible, with values well within ±2-fold.
# human α-thrombin = biological target: T2, human α-thrombin (Homo sapiens, UniProt P00734); experiment: Enzymatic assay for thrombin (fluorogenic peptide substrate Boc-VPR-AMC); format: biochemical
# T2 construct: enzyme (human α-thrombin (BioPharm® Lab.)) in assay buffer; purchased BioPharm® Lab
# Procedure: The thrombin assay utilizes a fluorogenic peptide substrate (Boc-VPR-AMC (R&D Systems) and was run at room temperature in an assay buffer containing 20 mM Hepes, pH 7.4, 140 mM NaCl and 0.1% Tween 20. Assay parameters were adjusted such that the assay was linear with respect to time, enzyme, and substrate concentrations. Under these optimized assays conditions, IC50 values were equivalent to Ki values, except in a few cases of “tight binding” inhibitors. Cases of “tight binding” or possible “slow binding” inhibitors were handled by the methods described in Copeland R. A. (2013) Evaluation of Enzyme Inhibitors in Drug Discovery. 2nd Ed. John Wiley and Sons, Inc., Chapters 5-7.
# The thrombin assay protocol was carried out as follows. Test compounds were serially diluted in DMSO and then 100 nL of each dilution was transferred to the assay plate(s). 10 μL of Assay Buffer was added, followed by 15 μL of enzyme (human α-thrombin (BioPharm® Lab.)) in assay buffer. 15 μL of substrate in assay buffer was then added and the sample mixed to start the reaction. After 20 min at room temperature, 15 μL of a stop solution (0.1 M acetic acid) was added, the sample was mixed, and the plates were read on a SpectraMax® i3x Microplate Reader with the data exported as Excel files. Each assay plate included a “no inhibitor” (DMSO only) control, a “no enzyme” control, and a reference inhibitor control. % Activity values=100*(ave. test comp. fluorescence−ave. “no enz” fluorescence)/(ave. “DMSO only” fluorescence−ave. “no enz” fluorescence). IC50 and Ki values were very reproducible, with values falling well within ±2-fold.
# T1 sequence (O00187 445-686 limits assumed): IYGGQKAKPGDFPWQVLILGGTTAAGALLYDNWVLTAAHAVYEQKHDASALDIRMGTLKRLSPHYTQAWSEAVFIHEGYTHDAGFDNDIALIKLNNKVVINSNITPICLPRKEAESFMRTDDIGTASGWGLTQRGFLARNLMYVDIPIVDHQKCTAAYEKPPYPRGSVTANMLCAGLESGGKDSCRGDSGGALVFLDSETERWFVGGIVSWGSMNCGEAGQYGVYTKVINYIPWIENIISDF
# T1 sequence (O00187 287-444 partner limits assumed): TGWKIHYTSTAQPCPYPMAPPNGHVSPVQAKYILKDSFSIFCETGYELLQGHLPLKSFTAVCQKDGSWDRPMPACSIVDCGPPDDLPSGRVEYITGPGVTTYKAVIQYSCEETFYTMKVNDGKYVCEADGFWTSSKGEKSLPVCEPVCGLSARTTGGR
Ki (MASP-2 (CCP1-CCP2-SP)) [µM],Ki (human α-thrombin) [µM],Structure (SMILES)
< 0.5,0.5 to 2.5,"CC[C@H]1C[C@@H](C(=O)NCc2cc3c(s2)CNC3)n2c1cnc(NCc1ccccc1)c2=O [Compound 161, (6S,8S)-3-(benzylamino)-N-((5,6-dihydro-4H-thieno[2,3-c]pyrrol-2-yl)methyl)-8-ethyl-4-oxo-4,6,7,8-tetrahydropyrrolo[1,2-a]pyrazine-6-carboxamide hydrochloride]"
< 0.5,2.5 to 10,"Cc1nc(N)ccc1CNC(=O)C1CCc2c(Cl)nc(NCc3cnccn3)c(=O)n21 (centres unmarked) [Compound 149, N-((6-amino-2-methylpyridin-3-yl)methyl)-1-chloro-4-oxo-3-((pyrazin-2-ylmethyl)amino)-4,6,7,8-tetrahydropyrrolo[1,2-a]pyrazine-6-carboxamide]"
0.5 to 2.5,2.5 to 10,N=C(N)c1ccc(CNC(=O)[C@@H]2CCc3c(Cl)nc(NCCc4ccccc4)c(=O)n32)cc1 [Compound 250]
2.5 to 10,> 25,"C[C@H](NC(=O)[C@@H]1CCc2cnc(N[C@@H](c3ccccc3)C3CC3)c(=O)n21)c1cc2c(s1)CNC2 [Compound 273, (S)-3-(((R)-cyclopropyl(phenyl)methyl)amino)-N-((S)-1-(5,6-dihydro-4H-thieno[2,3-c]pyrrol-2-yl)ethyl)-4-oxo-4,6,7,8-tetrahydropyrrolo[1,2-a]pyrazine-6-carboxamide trifluoroacetate]"
< 0.5,0.5 to 2.5,Cc1cc(C)cc(CNc2ncc3n(c2=O)[C@H](C(=O)N[C@H](C)c2ccc(N)nc2C)CC3)c1 [Compound 238]
< 0.5,< 0.5,"CC(C)c1cccc(CNc2ncc3n(c2=O)[C@H](C(=O)NCc2ccc(N)nc2)CC3)c1 [Compound 207, (S)—N-((6-aminopyridin-3-yl)methyl)-3-((3-isopropylbenzyl)amino)-4-oxo-4,6,7,8-tetrahydropyrrolo[1,2-a]pyrazine-6-carboxamide trifluoroacetate]"
< 0.5,0.5 to 2.5,"CC[C@H]1C[C@@H](C(=O)NCc2cc3cnccc3[nH]2)n2c1cnc(NCc1ccccc1)c2=O [Compound 151, (6S,8S)—N-((1H-pyrrolo[3,2-c]pyridin-2-yl)methyl)-3-(benzylamino)-8-ethyl-4-oxo-4,6,7,8-tetrahydropyrrolo[1,2-a]pyrazine-6-carboxamide]"
< 0.5,2.5 to 10,"Cc1cc(F)c(F)c(CNc2ncc3n(c2=O)[C@H](C(=O)N[C@H](C)c2ccc(N)nc2)CC3)c1 [Compound 224, (S)—N—((R)-1-(6-aminopyridin-3-yl)ethyl)-3-((2,3-difluoro-5-methylbenzyl)amino)-4-oxo-4,6,7,8-tetrahydropyrrolo[1,2-a]pyrazine-6-carboxamide trifluoroacetate]"
< 0.5,10 to 25,"CC[C@H]1C[C@@H](C(=O)NCc2cc3cnc(C)cc3[nH]2)n2c1cnc(NCc1cc(C)cc(C)c1)c2=O [Compound 129, (6S,8S)-3-((3,5-dimethylbenzyl)amino)-8-ethyl-N-((6-methyl-1H-pyrrolo[3,2-c]pyridin-2-yl)methyl)-4-oxo-4,6,7,8-tetrahydropyrrolo[1,2-a]pyrazine-6-carboxamide]"
< 0.5,< 0.5,"Cc1cc(F)cc(CNc2ncc3n(c2=O)[C@@H](C(=O)NCc2ccc(N)nc2C)CC3)c1 [Compound 163, (R)—N-((6-amino-2-methylpyridin-3-yl)methyl)-3-((3-fluoro-5-methylbenzyl)amino)-4-oxo-4,6,7,8-tetrahydropyrrolo[1,2-a]pyrazine-6-carboxamide]"
< 0.5,2.5 to 10,"Cc1cc(F)cc(CNc2nc(-c3ccnn3C)c3n(c2=O)[C@H](C(=O)NCc2cc4c(s2)CNC4)CC3)c1 [Compound 209, (S)—N-((5,6-dihydro-4H-thieno[2,3-c]pyrrol-2-yl)methyl)-3-((3-fluoro-5-methylbenzyl)amino)-1-(1-methyl-1H-pyrazol-5-yl)-4-oxo-4,6,7,8-tetrahydropyrrolo[1,2-a]pyrazine-6-carboxamide trifluoroacetate]"
< 0.5,< 0.5,O=C(NCc1cc2c(s1)CNC2)[C@@H]1CCc2c(Cl)nc(NCCc3ccccc3)c(=O)n21 [Compound 242]

# The remaining lines, values behind:
Structure (SMILES),Ki (MASP-2 (CCP1-CCP2-SP)) [µM],Ki (human α-thrombin) [µM]
"COCCCCNc1nc(Cl)c2n(c1=O)[C@H](C(=O)NCc1cc3cnccc3[nH]1)CC2 [Compound 22, (S)-N-((1H-pyrrolo[3,2-c]pyridin-2-yl)methyl)-1-chloro-3-((4-methoxybutyl)amino)-4-oxo-4,6,7,8-tetrahydropyrrolo[1,2-a]pyrazine-6-carboxamide]",< 0.5,10 to 25
"O=C(NCc1cc2cnccc2[nH]1)[C@@H]1CCc2cnc(NCC3CCCCC3)c(=O)n21 [Compound 113, (S)-N-((1H-pyrrolo[3,2-c]pyridin-2-yl)methyl)-3-((cyclohexylmethyl)amino)-4-oxo-4,6,7,8-tetrahydropyrrolo[1,2-alpyrazine-6-carboxamide trifluoroacetate]",< 0.5,2.5 to 10
"Cc1cc2[nH]c(CNC(=O)[C@@H]3CCc4cnc(NCc5cccc(C)c5F)c(=O)n43)cc2cn1 [Compound 61, (S)-3-((2-fluoro-3-methylbenzyl)amino)-N-((6-methyl-1H-pyrrolo[3,2-c]pyridin-2-yl)methyl)-4-oxo-4,6,7,8-tetrahydropyrrolo[1,2-a]pyrazine-6-carboxamide]",< 0.5,2.5 to 10
"Nc1nc2cc(CNC(=O)[C@@H]3CCc4c(Cl)nc(NCc5ccccc5)c(=O)n43)ccc2[nH]1 [Compound 29, trifluoroacetate]",< 0.5,10 to 25
"Cc1ccc(F)c(CNc2nc(Cl)c3n(c2=O)[C@H](C(=O)NCc2cc4cnccc4[nH]2)CC3)c1 [Compound 21, (S)-N-((1H-pyrrolo[3,2-c]pyridin-2-yl)methyl)-1-chloro-3-((2-fluoro-5-methylbenzyl)amino)-4-oxo-4,6,7,8-tetrahydropyrrolo[1,2-a]pyrazine-6-carboxamide]",< 0.5,2.5 to 10
"Cc1cc(F)cc(CNc2ncc3n(c2=O)[C@H](C(=O)NCc2ccc(N)nc2)CC3)c1 [Compound 72, (S)-N-((6-aminopyridin-3-yl)methyl)-3-((3-fluoro-5-methylbenzyl)amino)-4-oxo-4,6,7,8-tetrahydropyrrolo[1,2-a]pyrazine-6-carboxamide]",< 0.5,< 0.5
"Cc1cc2[nH]c(CNC(=O)[C@@H]3CCc4cnc(NCc5cccc(C)c5C)c(=O)n43)cc2cn1 [Compound 58, (S)-3-((2,3-dimethylbenzyl)amino)-N-((6-methyl-1H-pyrrolo[3,2-c]pyridin-2-yl)methyl)-4-oxo-4,6,7,8-tetrahydropyrrolo[1,2-a]pyrazine-6-carboxamide]",< 0.5,> 25
"Cc1cc(CNc2nc(Cl)c3n(c2=O)[C@H](C(=O)NCc2cc4cnccc4[nH]2)CC3)cc(C(F)(F)F)c1 [Compound 23, (S)-N-((1H-pyrrolo[3,2-c]pyridin-2-yl)methyl)-1-chloro-3-((3-methyl-5-(trifluoromethyl)benzyl)amino)-4-oxo-4,6,7,8-tetrahydropyrrolo[1,2-a]pyrazine-6-carboxamide]",< 0.5,> 25
"Cc1ccc(F)c(CNc2ncc3n(c2=O)[C@H](C(=O)NCc2ccc(N)nc2C)CC3)c1 [Compound 77, (S)-N-((6-amino-2-methylpyridin-3-yl)methyl)-3-((2-fluoro-5-methylbenzyl)amino)-4-oxo-4,6,7,8-tetrahydropyrrolo[1,2-a]pyrazine-6-carboxamide]",< 0.5,< 0.5
"Cc1cccc(CNc2nc(Cl)c3n(c2=O)[C@H](C(=O)NCc2ccc(N)nc2C)CC3)c1F [Compound 12, (S)-N-((6-amino-2-methylpyridin-3-yl)methyl)-1-chloro-3-((2-fluoro-3-methylbenzyl)amino)-4-oxo-4,6,7,8-tetrahydropyrrolo[1,2-a]pyrazine-6-carboxamide]",< 0.5,2.5 to 10
